The values that follow come from US9603804B2, “Solid pharmaceutical composition” (KYORIN PHARMACEUTICAL CO., LTD., priority 2013, dated 2017).

The first data set can be described thus: pH measurement of acidic/basic substances (2.5% liquid, pH meter). It counts as physicochemical. To be noted: 50 mg substance dissolved or suspended in 1,950 μL of water (concentration: 2.5%).
As for `O=C(O)CC(O)C(=O)O` (racemic) [DL-MALIC ACID, DL-malic acid], the pH stood at 2.1.
Still for that read-out and setting: as for `O=C(O)CC(O)(CC(=O)O)C(=O)O` [ANHYDROUS CITRIC ACID, citric acid anhydride], the figure is 2.1; as for `O=C([O-])CC(O)(CC(=O)[O-])C(=O)O.[Na+].[Na+]` [DIBASIC SODIUM CITRATE, dibasic sodium citrate], 5.1; as for `O=C(O)/C=C/C(=O)O` [FUMARIC ACID, fumaric acid], 2.2.
Same read-out and setting: next, `O=C(O)C(O)C(O)C(=O)O` [L-(+)TARTARIC ACID, L-(+)tartaric acid]: 1.9; `N[C@@H](CC(=O)O)C(=O)O` [L-ASPARTIC ACID, L-aspartic acid]: 2.8; `Cl.N[C@@H](CCC(=O)O)C(=O)O` [L-GLUTAMIC ACID HYDROCHLORIDE, L-glutamic acid hydrochloride]: 1.5.
Same read-out and setting: next, `N[C@@H](CCC(=O)O)C(=O)O` [L-GLUTAMIC ACID, L-glutamic acid]: 3.0; `O=C([O-])CC(O)(CC(=O)O)C(=O)O.[Na+]` [MONOBASIC SODIUM CITRATE, monobasic sodium citrate]: 3.7; `O=C([O-])CC(O)(CC(=O)[O-])C(=O)[O-].[Na+].[Na+].[Na+]` [SODIUM CITRATE, sodium citrate]: 8.2.

The next data set is described as follows: Solubility in water at 20° C. of acidic substances. To be noted: MW={C/(100+C)}×100, C = mass (g) of solute dissolved in 100 g of water. In kind it is physicochemical. How it is done:
The “solubility in water” herein is a value obtained by calculation using the following equation (A) on the basis of the mass (g) of a solute that is dissolved in 100 g of water. MW={C/(100+C)}×100 (A) In the equation (A), MW represents the solubility (%) in water and C represents the mass (g) of a solute that is dissolved in 100 g of water.
For `O=C(O)CC(O)C(=O)O` (racemic) [DL-MALIC ACID, DL-malic acid], the “SOLUBILITY IN WATER (20° C.)” value came to 36.0%.
Regarding `O=C(O)/C=C/C(=O)O` [FUMARIC ACID, fumaric acid], the “SOLUBILITY IN WATER (20° C.)” value was 0.63%.
